Test results reported in ChEMBL document CHEMBL1130632, “Polycyclic aromatic compounds as anticancer agents: synthesis and biological evaluation of some chrysene derivatives” (Bioorg Med Chem Lett, 1998).
Values after ≈ are worked out from the molar mass of the structure shown.

Experiments:
Type in all cases: functional, cell-based
MCF7 = experiment: Compound was evaluated for the growth inhibition of MCF-7 breast cell line.; details: Homo sapiens
SK-MEL-2 = experiment: Compound was evaluated for the growth inhibition of […] melanoma cell line.; details: Homo sapiens
BRO melanoma cell line = experiment: Compound was evaluated for the growth inhibition of BRO melanoma cell line.; details: Homo sapiens
P388 = experiment: Compound was evaluated for the growth inhibition of p388/0 leukemia cell line.; details: Mus musculus
HT-29 = experiment: Compound was evaluated for the growth inhibition of HT-29 colon cell line.; details: Homo sapiens

Structure (SMILES) | IC50 (MCF7) [µg/mL] | IC50 (SK-MEL-2) [µg/mL] | IC50 (BRO melanoma cell line) [µg/mL] | IC50 (P388) [µg/mL] | IC50 (HT-29) [µg/mL]
O=C(CCC(=O)N1CCCCC1)Nc1cc2c3ccccc3ccc2c2ccccc12 | 11.5 (≈ 28 µM) | 15.9 (≈ 38.7 µM) | 15 (≈ 36.5 µM) | 12.2 (≈ 29.7 µM) | 10.1 (≈ 24.6 µM)
CN1CCN(C(=O)CCC(=O)Nc2ccc3c(ccc4c5ccccc5ccc34)c2)CC1 | 9.8 (≈ 23 µM) | 9.2 (≈ 21.6 µM) | 9.5 (≈ 22.3 µM) | 7.9 (≈ 18.6 µM) | 4.8 (≈ 11.3 µM)
O=C(CCC(=O)N1CCCCC1)Nc1ccc2c(ccc3c4ccccc4ccc23)c1 | 10.2 (≈ 24.8 µM) | 13.3 (≈ 32.4 µM) | 17.3 (≈ 42.1 µM) | 10.5 (≈ 25.6 µM) | 8.5 (≈ 20.7 µM)
CN1CCN(C(=O)CCC(=O)Nc2cc3c4ccccc4ccc3c3ccccc23)CC1 | 11.2 (≈ 26.3 µM) | 10 (≈ 23.5 µM) | 11.8 (≈ 27.7 µM) | 9.8 (≈ 23 µM) | 6.6 (≈ 15.5 µM)
c1ccc2c(c1)ccc1c3ccc(NCCCCN4CCCCC4)cc3ccc21 | 3 (≈ 7.84 µM) | 3.8 (≈ 9.93 µM) | 4.5 (≈ 11.8 µM) | 2.2 (≈ 5.75 µM) | 2.3 (≈ 6.01 µM)
CN1CCN(CCCCNc2ccc3c(ccc4c5ccccc5ccc34)c2)CC1 | 12.1 (≈ 30.4 µM) | 8.7 (≈ 21.9 µM) | 8.8 (≈ 22.1 µM) | 4.7 (≈ 11.8 µM) | 9.3 (≈ 23.4 µM)
COc1cccc2c1C(=O)c1c(O)c3c(c(O)c1C2=O)C[C@@](O)(C(=O)CO)C[C@@H]3O[C@H]1C[C@H](N)[C@H](O)[C@H](C)O1 [DOXORUBICIN] | 0.4 (≈ 0.736 µM) | 0.1 (≈ 0.184 µM) | 0.2 (≈ 0.368 µM) | 0.8 (≈ 1.47 µM) | 0.5 (≈ 0.92 µM)
